Results: patent US11440923B2, “Substituted macrocyclic indole derivatives” (Bayer Aktiengesellschaft, priority 2017, dated 2022)
Structures can show the parent of a compound that is named as a salt. Where two headings read alike, the source gives them in different places.

What was measured:
BCL-XL = BCL-XL (Homo sapiens (Human), UniProt Q07817); experiment: Protein-protein interaction assay BCL-XL/Bad BH3 peptide (BCL-XL assay, TR-FRET); format: binding; details: read-out: BCL-XL Assay IC50 (median)
BCL-XL, sequence (Q07817 1-212): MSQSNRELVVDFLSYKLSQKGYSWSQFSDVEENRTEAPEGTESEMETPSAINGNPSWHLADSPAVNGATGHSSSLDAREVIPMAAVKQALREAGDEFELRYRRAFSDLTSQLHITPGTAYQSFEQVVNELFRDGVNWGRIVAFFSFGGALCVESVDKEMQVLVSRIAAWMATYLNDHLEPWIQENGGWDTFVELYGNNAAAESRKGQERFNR
How it was run: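 Human BCL-XL (aa 1-212, C-terminal His6, E. coli) at 1 nM end concentration, preincubated 10 min at 22 °C with compound (11 concentrations, 0.1 nM–20 μM, duplicates), then biotinylated Bad BH3 peptide (1 nM) added with anti-His-Eu cryptate/streptavidin-XL665. Incubation 1 h at 22 °C then overnight at 4 °C; TR-FRET 665/620 ratio, IC50 from 4-parameter fit.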

SUDHL5 cells [1] = experiment: Induction of caspase-3/7 activity in SUDHL5 cells (Assay 4); format: cell-based
How it was run: (§1)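 Caspase-3/7 activity measured in DLBCL lines after 3 h compound exposure at 37 °C, following overnight plating; Caspase-Glo 3/7 luminescence read after 1 h at 37 °C. Medium-only background subtracted, values normalized to mean of DMSO-treated cells.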

SUDHL10 cells = experiment: Induction of caspase-3/7 activity in SUDHL10 cells (Assay 4); format: cell-based
How it was run: as §1

SUDHL5 cells [2] = experiment: Antiproliferation assay SUDHL5 (Assay 7); format: cell-based
How it was run: (§2)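 Luminescent viability signal (CellTiter-Glo) after 72 h of treatment served as read-out. IC50 values were derived with day 0 luminescence as CI and DMSO wells as C0.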

AMO-1 cells = experiment: Antiproliferation assay AMO-1 (Assay 7); format: cell-based
How it was run: as §2

HMC-1-8 cells = experiment: Antiproliferation assay HMC-1-8 (Assay 7); format: cell-based
How it was run: as §2

[3] = caspase-3/7 induction, 3 h; read-out: Caspase SUDHL5 EC50 (median)
[4] = caspase-3/7 induction, 3 h; read-out: Caspase SUDHL10 EC50 (median)
[5] = 72 h, CellTiter-Glo; read-out: Antiproli SUDHL5 IC50 (median)
[6] = 72 h, CellTiter-Glo; read-out: Antiproli AMO-1 IC50 median
[7] = 72 h, CellTiter-Glo; read-out: Antiproli HMC-1-8 IC50 median
[8] = Homo sapiens, SU-DHL-5, 3 h, caspase-3/7 induction, 3 h; read-out: Caspase SUDHL5 EC50 (median)
[9] = Homo sapiens, SU-DHL10, 3 h, caspase-3/7 induction, 3 h; read-out: Caspase SUDHL10 EC50 (median)
[10] = Homo sapiens, SU-DHL-5, 72 h, 72 h, CellTiter-Glo; read-out: Antiproli SUDHL5 IC50 (median)
[11] = Homo sapiens, AMO1, 72 h, 72 h, CellTiter-Glo; read-out: Antiproli AMO-1 IC50 median
[12] = read-out: Caspase SUDHL5 EC50 (median); caspase-3/7 induction, 3 h
[13] = read-out: Caspase SUDHL10 EC50 (median); caspase-3/7 induction, 3 h
[14] = read-out: Antiproli SUDHL5 IC50 (median); 72 h, CellTiter-Glo
[15] = read-out: Antiproli AMO-1 IC50 median; 72 h, CellTiter-Glo

SMILES	IC50 (BCL-XL)	EC50 (SUDHL5 cells [1]; [8])	EC50 (SUDHL10 cells; [9])	IC50 (SUDHL5 cells [2]; [10])	EC50 (SUDHL5 cells [1]; [12])	EC50 (SUDHL10 cells; [13])	IC50 (SUDHL5 cells [2]; [14])	other results
CCc1c2c(nn1C)C(Cc1ccccc1)OCCCCn1c(C(=O)O)c(CCCOc3cccc4cc(F)ccc34)c3ccc(Cl)c-2c31 (racemic) [Example 92, (rac)-(rac-15)-benzyl-4-chloro-3-ethyl-7-{3-[(6-fluoro-1-naphthyl)oxy]propyl}-2-methyl-2,10,11,12,13,15-hexahydropyrazolo[4′,3′:9,10][1,6]oxazacycloundecino[8,7,6-hi]indole-8-carboxylic Acid]	13200 nM	960 nM	1100 nM	1200 nM	–	–	–	IC50 (AMO-1 cells; [11]): 1360 nM; IC50 (HMC-1-8 cells; 72 h, CellTiter-Glo, read-out: Antiproli HMC-1-8 IC50 median): 7070 nM
Cc1c2c(nn1C)C(CCN1CCOCC1)OCCCCn1c(C(=O)O)c(CCCOc3cccc4cc(F)ccc34)c3ccc(F)c-2c31 (racemic) [Example 19, (rac)-4-fluoro-7-{3-[(6-fluoronaphthalen-1-yl)oxy]propyl}-2,3-dimethyl-15-[2-(morpholin-4-yl)ethyl]-2,10,11,12,13,15-hexahydropyrazolo[4′,3′:9,10][1,6]oxazacycloundecino[8,7,6-hi]indole-8-carboxylic Acid]	> 20000 nM	73 nM	79 nM	77 nM	–	–	–	IC50 (AMO-1 cells; [11]): 102 nM
CCc1c2c(nn1C)C(CCN1CCC(F)(F)C1)OCCCCn1c(C(=O)O)c(CCCOc3cccc4cc(F)ccc34)c3ccc(Cl)c-2c31 (single isomer, unassigned; enantiomer 1) [Example 56, 4-chloro-15-[2-(3,3-difluoropyrrolidin-1-yl)ethyl]-3-ethyl-7-{3-[(6-fluoronaphthalen-1-yl)oxy]propyl}-2-methyl-2,10,11,12,13,15-hexahydropyrazolo[4′,3′:9,10][1,6]oxazacycloundecino[8,7,6-hi]indole-8-carboxylic Acid—N-ethylethanamine Salt (Enantiomer 1)]	> 20000 nM	–	–	–	18 nM	20 nM	87 nM	IC50 (AMO-1 cells; [15]): 22.6 nM
Cc1c2c(nn1C)C(CCN1CCOCC1)OCCCCn1c(C(=O)O)c(CCCOc3cccc4ccccc34)c3ccc(Cl)c-2c31 (racemic) [Example 13, (rac)-4-chloro-2,3-dimethyl-15-[2-(morpholin-4-yl)ethyl]-7-{3-[(naphthalen-1-yl)oxy]propyl}-2,10,11,12,13,15-hexahydropyrazolo[4′,3′:9,10][1,6]oxazacycloundecino[8,7,6-hi]indole-8-carboxylic Acid]	> 20000 nM	77 nM	140 nM	110 nM	–	–	–	IC50 (AMO-1 cells; [11]): 191 nM
Cc1c2c(nn1C)C(CCN1CCOCC1)OCCCCn1c(C(=O)O)c(CCCOc3cccc4ccccc34)c3ccc(Cl)c-2c31 (single isomer, unassigned; enantiomer 2) [Example 15, 4-chloro-2,3-dimethyl-15-[2-(morpholin-4-yl)ethyl]-7-{3-[(naphthalen-1-yl)oxy]propyl}-2,10,11,12,13,15-hexahydropyrazolo[4′,3′:9,10][1,6]oxazacycloundecino[8,7,6-hi]indole-8-carboxylic Acid (Enantiomer 2)]	> 20000 nM	–	–	–	–	–	–	EC50 (SUDHL5 cells [1]; [3]): 2300 nM; EC50 (SUDHL10 cells; [4]): 11000 nM; IC50 (SUDHL5 cells [2]; [5]): 2500 nM; IC50 (AMO-1 cells; [6]): 10500 nM
CCc1c2c(nn1C)C(CCN1CCOCC1)OCCCCn1c(C(=O)O)c(CCCOc3cccc4ccccc34)c3ccc(F)c-2c31 (single isomer, unassigned; enantiomer 2) [Example 12, 3-ethyl-4-fluoro-2-methyl-15-[2-(morpholin-4-yl)ethyl]-7-{3-[(naphthalen-1-yl)oxy]propyl}-2,10,11,12,13,15-hexahydropyrazolo[4′,3′:9,10][1,6]oxazacycloundecino[8,7,6-hi]indole-8-carboxylic Acid—N-ethylethanamine Salt (Enantiomer 2)]	> 20000 nM	–	–	–	2700 nM	7100 nM	2600 nM	IC50 (AMO-1 cells; [15]): 12100 nM

Now from value to compound, other results behind:

IC50 (BCL-XL)	EC50 (SUDHL5 cells [1]; [8])	EC50 (SUDHL10 cells; [9])	IC50 (SUDHL5 cells [2]; [10])	SMILES	EC50 (SUDHL5 cells [1]; [12])	EC50 (SUDHL10 cells; [13])	IC50 (SUDHL5 cells [2]; [14])	other results
> 20000 nM	–	–	–	CCc1c2c(nn1C)C(CCN1CCOCC1)OCCCCn1c(C(=O)O)c(CCCOc3cccc4cc(F)ccc34)c3ccc(F)c-2c31 (single isomer, unassigned; enantiomer 1) [Example 50, (+)-3-ethyl-4-fluoro-7-{3-[(6-fluoronaphthalen-1-yl)oxy]propyl}-2-methyl-15-[2-(morpholin-4-yl)ethyl]-2,10,11,12,13,15-hexahydropyrazolo[4′,3′:9,10][1,6]oxazacycloundecino[8,7,6-hi]indole-8-carboxylic Acid (Enantiomer 1)]	–	–	–	EC50 (SUDHL5 cells [1]; [3]): 13 nM; EC50 (SUDHL10 cells; [4]): 26 nM; IC50 (SUDHL5 cells [2]; [5]): 11 nM; IC50 (AMO-1 cells; [6]): 65.4 nM; IC50 (HMC-1-8 cells; [7]): 392 nM
> 20000 nM	–	–	95 nM	CCc1c2c(nn1C)C(CCO)OCCCCn1c(C(=O)O)c(CCCOc3cccc4cc(F)ccc34)c3ccc(Cl)c-2c31 (single isomer, unassigned; enantiomer 1) [Example 45, (+)-4-chloro-3-ethyl-7-{3-[(6-fluoronaphthalen-1-yl)oxy]propyl}-15-(2-hydroxyethyl)-2-methyl-2,10,11,12,13,15-hexahydropyrazolo[4′,3′:9,10][1,6]oxazacycloundecino[8,7,6-hi]indole-8-carboxylic Acid (Enantiomer 1)]	–	–	–	EC50 (SUDHL5 cells [1]; [3]): 19 nM; EC50 (SUDHL10 cells; [4]): 99 nM; IC50 (AMO-1 cells; [6]): 185 nM; IC50 (HMC-1-8 cells; [7]): 2140 nM
> 20000 nM	–	–	–	Cc1c2c(nn1C)C(CCN1CCOCC1)OCCCCn1c(C(=O)O)c(CCCOc3cccc4ccccc34)c3ccc(F)c-2c31 (single isomer, unassigned; enantiomer 2) [Example 9, 4-fluoro-2,3-dimethyl-15-[2-(morpholin-4-yl)ethyl]-7-{3-[(naphthalen-1-yl)oxy]propyl}-2,10,11,12,13,15-hexahydropyrazolo[4′,3′:9,10][1,6]oxazacycloundecino[8,7,6-hi]indole-8-carboxylic Acid—N-ethylethanamine Salt (Enantiomer 2)]	6400 nM	12000 nM	4300 nM	–
> 20000 nM	200 nM	360 nM	200 nM	Cc1c2c(nn1C)C(CCN1CCOCC1)OCCCCn1c(C(=O)O)c(CCCOc3cccc4ccccc34)c3ccc(F)c-2c31 (racemic) [Example 7, (rac)-4-fluoro-2,3-dimethyl-15-[2-(morpholin-4-yl)ethyl]-7-[3-(naphthalen-1-yloxy)propyl]-2,10,11,12,13,15-hexahydropyrazolo[4′,3′:9,10][1,6]oxazacycloundecino[8,7,6-hi]indole-8-carboxylic Acid]	–	–	–	–
> 20000 nM	–	–	–	Cc1c2c(nn1C)C(C)OCCCCn1c(C(=O)O)c(CCCOc3cccc4ccccc34)c3cccc-2c31 (single isomer, unassigned; stereoisomer 1) [Example 2, 2,3,15-trimethyl-7-[3-(naphthalen-1-yloxy)propyl]-2,10,11,12,13,15-hexahydropyrazolo[4′,3′:9,10][1,6]oxazacycloundecino[8,7,6-hi]indole-8-carboxylic Acid Trifluoroacetic Acid Salt (Stereoisomer 1)]	1200 nM	2500 nM	3500 nM	–
